One may read the Km as the concentration of substrate that gives half-maximal velocity. The term Vmax denotes the top rate of the reaction or transport when substrate is in excess. Broadly, the EC50 is the concentration that produces a half-maximal response.

The source of these data is ChEMBL document CHEMBL1649121, “Giardia, Entamoeba, and Trichomonas enzymes activate metronidazole (nitroreductases) and inactivate metronidazole (nitroimidazole reductases)” (Antimicrob Agents Chemother, 2009).

Values after ≈ are worked out from the molar mass of the structure shown.

The subject of assay [1] is Entamoeba histolytica. The assay is described as follows: Activity of Entamoeba histolytica NTR1 at 50 uM.
Assay [2] relates to Entamoeba histolytica. The assay is described as follows: Activity of Entamoeba histolytica NTR2 at 50 uM.
The subject of assay [3] is Entamoeba histolytica. The assay is described as follows: Activity of Entamoeba histolytica NTR3 at 50 uM.
In assay [4] the test system is Giardia duodenalis. Briefly: Activity of Giardia lamblia NTR at 50 uM.
The subject of assay [5] is Trichomonas vaginalis. Briefly: Activity of Trichomonas vaginalis NTR8 at 50 uM.
Assay [6] concerns Escherichia coli. Briefly: Antimicrobial activity against Escherichia coli JM109 transformed with empty vector PQE30 after 16 hrs. The class given is functional, organism-based. As to conditions: JM109, JM 109, 16 h.
The test system of assay [7] is Escherichia coli. The assay is described as follows: Antimicrobial activity against Escherichia coli JM109 transformed with Entamoeba histolytica NTR1 after 16 hrs. The class given is functional, organism-based. As to conditions: JM109, JM 109, 16 h.
The subject of assay [8] is Escherichia coli. Briefly: Antimicrobial activity against Escherichia coli JM109 transformed with Entamoeba histolytica NTR2 after 16 hrs. Format: functional, organism-based. As to conditions: JM109, JM 109, 16 h.
The subject of assay [9] is Escherichia coli. The assay is described as follows: Ratio of EC50 for Escherichia coli JM109 transformed with empty vector PQE30 to EC50 for Escherichia coli JM109 transformed with Entamoeba histolytica NTR1. Format: functional.
The subject of assay [10] is Escherichia coli. Briefly: Ratio of EC50 for Escherichia coli JM109 transformed with empty vector PQE30 to EC50 for Escherichia coli JM109 transformed with Entamoeba histolytica NTR2. The class given is functional.
For assay [11], the system named is Escherichia coli. Briefly: Antimicrobial activity against Escherichia coli JM109 transformed with Entamoeba histolytica nim1 after 16 hrs. Format: functional, organism-based. Conditions: JM109, JM 109, 16 h.
Assay [12] concerns Escherichia coli. Briefly: Antimicrobial activity against Escherichia coli JM109 transformed with Trichomonas vaginalis nim1 after 16 hrs. The class given is functional, organism-based. As to conditions: JM109, JM 109, 16 h.
Assay [13] relates to Escherichia coli. Briefly: Ratio of EC50 for Escherichia coli JM109 transformed with empty vector PQE30 to EC50 for Escherichia coli JM109 transformed with Entamoeba histolytica nim1. Format: functional.
The test system of assay [14] is Escherichia coli. Briefly: Ratio of EC50 for Escherichia coli JM109 transformed with empty vector PQE30 to EC50 for Escherichia coli JM109 transformed with Trichomonas vaginalis nim1. The class given is functional.
The subject of assay [15] is Entamoeba histolytica. Briefly: Activity of Entamoeba histolytica NIM1.

`Cc1ncc([N+](=O)[O-])n1CCO` [METRONIDAZOLE]: the Km worked out at 0.067 µM in [1]; 0.081 µM in assay [2]; 0.083 µM in assay [3]; 0.206 µM in [4]; 0.078 µM in assay [5]. The Vmax in assay [1] came out at 0.027 µmol/min; in [2], 0.031 µmol/min; in [3] it was 0.014 µmol/min; in assay [4], 0.347 µmol/min; in assay [5], 0.329 µmol/min; in [15] it was 0.057 µmol/min. The EC50 in assay [6] stood at 25 µg/mL (≈ 146 µM); in assay [7] it was 7 µg/mL (≈ 40.9 µM); in assay [8], 8 µg/mL (≈ 46.7 µM); in assay [11] it was 750 µg/mL (≈ 4380 µM); in [12], 500 µg/mL (≈ 2920 µM). For the same molecule, the “Ratio EC50” value in assay [9] worked out at 3; in [10], 3; in assay [13] it was 30; in [14], 20.
